This series is described as follows: activity coefficient (dimensionless); of the first substance listed, at infinite dilution; xn = mol fraction of the nth substance listed. Conditions: 100 kPa, Liquid, Chromatography, x1 = 0.

± gives the expanded uncertainty stated by the source.

For `CCCCCCCCC` [nonane] + CCCC[N+]1(C)CCCC1.N#CN=C=[N-], the activity coefficient (313.15 K) amounted to 172 ± 18; the activity coefficient (323.15 K) was found to be 154 ± 16; the activity coefficient (343.15 K) is 133 ± 14; the activity coefficient (363.15 K) turned out to be 120 ± 13; the activity coefficient (373.15 K) turned out to be 114 ± 12.
Regarding `C=CCCCCCC` [oct-1-ene] + CCCC[N+]1(C)CCCC1.N#CN=C=[N-], the activity coefficient amounted to 47.8 ± 5 (313.15 K); 46.3 ± 4.9 (323.15 K); 42.8 ± 4.5 (343.15 K); 40.3 ± 4.2 (363.15 K); 39 ± 4.1 (373.15 K).
`CCCCCCCC` [octane] + CCCC[N+]1(C)CCCC1.N#CN=C=[N-]: the activity coefficient came to 119 ± 13 (313.15 K); 111 ± 12 (323.15 K); 96 ± 10 (343.15 K); 86 ± 9.1 (363.15 K); 81 ± 8.5 (373.15 K).
Turning to `CCCC(C)=O` [pentan-2-one] + CCCC[N+]1(C)CCCC1.N#CN=C=[N-], the activity coefficient (313.15 K) is 1.73 ± 0.18; the activity coefficient (323.15 K) was 1.79 ± 0.19; the activity coefficient (343.15 K) came out at 1.89 ± 0.2; the activity coefficient (363.15 K) was found to be 1.96 ± 0.21; the activity coefficient (373.15 K) came out at 2.02 ± 0.21.
Take `CCC(=O)CC` [pentan-3-one] + CCCC[N+]1(C)CCCC1.N#CN=C=[N-]: the activity coefficient stood at 1.7 ± 0.18 (313.15 K); 1.76 ± 0.18 (323.15 K); 1.9 ± 0.2 (343.15 K); 1.99 ± 0.21 (363.15 K); 2.04 ± 0.21 (373.15 K).
For the molecule `CCCO` [propan-1-ol] + CCCC[N+]1(C)CCCC1.N#CN=C=[N-], the activity coefficient reads like this: (313.15 K) 0.649 ± 0.068; (323.15 K) 0.645 ± 0.068; (343.15 K) 0.648 ± 0.068; (363.15 K) 0.665 ± 0.07; (373.15 K) 0.638 ± 0.067.
For `CC(C)O` [propan-2-ol] + CCCC[N+]1(C)CCCC1.N#CN=C=[N-], the activity coefficient came to 0.744 ± 0.077 (313.15 K); 0.719 ± 0.075 (323.15 K); 0.714 ± 0.074 (343.15 K); 0.711 ± 0.074 (363.15 K); 0.696 ± 0.073 (373.15 K).
Turning to `CCC=O` [propanal] + CCCC[N+]1(C)CCCC1.N#CN=C=[N-], the activity coefficient runs as follows: (313.15 K) 1.04 ± 0.11; (323.15 K) 1.05 ± 0.11; (343.15 K) 1.1 ± 0.1; (363.15 K) 1.16 ± 0.12; (373.15 K) 1.21 ± 0.12.
With `c1ccncc1` [pyridine] + CCCC[N+]1(C)CCCC1.N#CN=C=[N-], the activity coefficient amounted to 1.02 ± 0.1 (313.15 K); 1.05 ± 0.11 (323.15 K); 1.07 ± 0.11 (343.15 K); 1.11 ± 0.11 (363.15 K); 1.13 ± 0.12 (373.15 K).
Turning to `C=Cc1ccccc1` [styrene] + CCCC[N+]1(C)CCCC1.N#CN=C=[N-], the activity coefficient by setting is: (313.15 K) 1.49 ± 0.15; (323.15 K) 1.54 ± 0.16; (343.15 K) 1.7 ± 0.18; (363.15 K) 1.8 ± 0.19; (373.15 K) 1.9 ± 0.2.
For the molecule `C1CCOC1` [tetrahydrofuran] + CCCC[N+]1(C)CCCC1.N#CN=C=[N-], the activity coefficient worked out at 1.34 ± 0.14 (313.15 K); 1.39 ± 0.14 (323.15 K); 1.48 ± 0.15 (343.15 K); 1.56 ± 0.16 (363.15 K); 1.6 ± 0.17 (373.15 K).
For the molecule `c1ccsc1` [thiophene] + CCCC[N+]1(C)CCCC1.N#CN=C=[N-], the activity coefficient amounted to 0.807 ± 0.083 (313.15 K); 0.845 ± 0.087 (323.15 K); 0.929 ± 0.095 (343.15 K); 1.01 ± 0.1 (363.15 K); 1.05 ± 0.11 (373.15 K).
Taken in the same sequence, the figures for `Cc1ccccc1` [toluene] + CCCC[N+]1(C)CCCC1.N#CN=C=[N-] were 2.07 ± 0.22, 2.14 ± 0.22, 2.3 ± 0.24, 2.43 ± 0.26 and 2.48 ± 0.26.

(Values after the NIST ThermoML archive (doi:10.1016/j.fluid.2018.06.013).)
